Test system: panel of breast cancer cell lines
Assay: Compound A with targeted agents and chemotherapies, 72-hour in vitro proliferation assays
Assay type: cell-based
Settings: compound A × partner, 72-hour proliferation

SMILES: Cn1ncnc1[C@H]1c2n[nH]c(=O)c3cc(F)cc(c23)N[C@@H]1c1ccc(F)cc1 [BMN 673]
- Best CI (AU565 cell line): 0.72
- Bliss Volume (AU565 cell line): 5.62
- HSA volume (AU565 cell line): 2.94
- Synergy Score (AU565 cell line): 8.12
- Best CI (BT-20 cell line): 0.67
- Bliss Volume (BT-20 cell line): 6.61
- HSA volume (BT-20 cell line): 7.19
- Loewe Volume (BT-20 cell line): 7.05
- Synergy Score (BT-20 cell line): 13.00
- Best CI (CAL-51 cell line): 0.26
- Bliss Volume (CAL-51 cell line): 6.45
- HSA volume (CAL-51 cell line): 8.03
- Loewe Volume (CAL-51 cell line): 8.01
- Synergy Score (CAL-51 cell line): 6.14
- Best CI (CAL-85-1 cell line): 0.10
- Bliss Volume (CAL-85-1 cell line): 9.61
- HSA volume (CAL-85-1 cell line): 13.84
- Loewe Volume (CAL-85-1 cell line): 13.04
- Synergy Score (CAL-85-1 cell line): 13.48
- Best CI (CAL-120 cell line): 2.73
- Bliss Volume (CAL-120 cell line): −3.70
- HSA volume (CAL-120 cell line): −7.12
- Loewe Volume (CAL-120 cell line): −9.94
- Synergy Score (CAL-120 cell line): 0.01
- Best CI (CAL-148 cell line): 0.03
- Bliss Volume (CAL-148 cell line): 32.27
- HSA volume (CAL-148 cell line): 30.51
- Loewe Volume (CAL-148 cell line): 33.70
- Synergy Score (CAL-148 cell line): 51.37
- Best CI (CAMA-1 cell line): 0.44
- Bliss Volume (CAMA-1 cell line): 14.84
- HSA volume (CAMA-1 cell line): 11.15
- Loewe Volume (CAMA-1 cell line): 11.46
- Best CI (DU-4475 cell line): 0.90
- Bliss Volume (DU-4475 cell line): 14.54
- HSA volume (DU-4475 cell line): 11.67
- Loewe Volume (DU-4475 cell line): 11.80
- Synergy Score (DU-4475 cell line): 12.59
- Best CI (EVSA-T cell line): 0.76
- Bliss Volume (EVSA-T cell line): 12.51
- HSA volume (EVSA-T cell line): 5.77
- Loewe Volume (EVSA-T cell line): 5.78
- Synergy Score (EVSA-T cell line): 7.17
- Best CI (HCC38): 0.09
- Bliss Volume (HCC38): 12.68
- Loewe Volume (HCC38): 13.43
- Synergy Score (HCC38): 20.73
- Best CI (HCC70): 0.39
- Bliss Volume (HCC70): 15.24
- HSA volume (HCC70): 15.02
- Loewe Volume (HCC70): 15.13
- Best CI (HCC1143 cell line): 0.53
- Bliss Volume (HCC1143 cell line): 0.82
- HSA volume (HCC1143 cell line): 2.15
- Loewe Volume (HCC1143 cell line): 1.38
- Synergy Score (HCC1143 cell line): 4.91
- Best CI (HCC1569): 0.55
- Bliss Volume (HCC1569): 9.55
- HSA volume (HCC1569): 11.82
- Loewe Volume (HCC1569): 11.51
- Synergy Score (HCC1569): 10.50
- Best CI (HCC1806): 0.15
- Bliss Volume (HCC1806): 15.34
- HSA volume (HCC1806): 21.19
- Loewe Volume (HCC1806): 21.61
- Synergy Score (HCC1806): 26.09
- Best CI (HCC1937): 0.51
- Bliss Volume (HCC1937): 5.18
- HSA volume (HCC1937): 0.65
- Loewe Volume (HCC1937): 4.96
- Synergy Score (HCC1937): 3.27
- Best CI (HCC1954): 0.56
- Bliss Volume (HCC1954): 7.66
- HSA volume (HCC1954): 7.39
- Loewe Volume (HCC1954): 8.33
- Synergy Score (HCC1954): 9.80
- Best CI (HCC2218): 0.90
- Bliss Volume (HCC2218): 1.41
- HSA volume (HCC2218): 0.71
- Loewe Volume (HCC2218): 0.15
- Synergy Score (HCC2218): 5.35
- Best CI (HDQ-P1): 0.91
- Bliss Volume (HDQ-P1): 0.31
- HSA volume (HDQ-P1): −0.95
- Loewe Volume (HDQ-P1): −0.15
- Synergy Score (HDQ-P1): 1.09
- Best CI (HMC-1-8): 0.22
- Bliss Volume (HMC-1-8): 22.38
- HSA volume (HMC-1-8): 11.38
- Loewe Volume (HMC-1-8): 11.09
- Synergy Score (HMC-1-8): 19.54
- Best CI (JIMT-1): 0.13
- Bliss Volume (JIMT-1): −0.56
- HSA volume (JIMT-1): −1.70
- Loewe Volume (JIMT-1): −1.62
- Synergy Score (JIMT-1): 1.28
- Best CI (KPL-1): 0.53
- Bliss Volume (KPL-1): −2.58
- HSA volume (KPL-1): 0.29
- Synergy Score (KPL-1): 1.84

SMILES: Cc1c(-c2ccc(N3CCc4cccc(C(=O)Nc5nc6ccccc6s5)c4C3)nc2C(=O)O)cnn1CC12CC3CC(CC(C3)C1)C2 [Compound A-1331852]
- Best CI (BT-20 cell line): 0.01
- Bliss Volume (BT-20 cell line): 68.96
- HSA volume (BT-20 cell line): 70.29
- Loewe Volume (BT-20 cell line): 70.26
- Synergy Score (BT-20 cell line): 162.62
- Best CI (CAL-51 cell line): 0.01
- Bliss Volume (CAL-51 cell line): 56.43
- HSA volume (CAL-51 cell line): 55.36
- Loewe Volume (CAL-51 cell line): 56.58
- Synergy Score (CAL-51 cell line): 118.96
- Best CI (CAL-85-1 cell line): 0.01
- Bliss Volume (CAL-85-1 cell line): 49.08
- HSA volume (CAL-85-1 cell line): 54.69
- Loewe Volume (CAL-85-1 cell line): 53.39
- Synergy Score (CAL-85-1 cell line): 114.90
- Best CI (CAL-120 cell line): 0.04
- Bliss Volume (CAL-120 cell line): 28.08
- HSA volume (CAL-120 cell line): 26.51
- Loewe Volume (CAL-120 cell line): 28.14
- Synergy Score (CAL-120 cell line): 55.20
- Best CI (CAL-148 cell line): 0.01
- Bliss Volume (CAL-148 cell line): 51.23
- HSA volume (CAL-148 cell line): 55.15
- Loewe Volume (CAL-148 cell line): 56.80
- Synergy Score (CAL-148 cell line): 129.75
- Best CI (CAMA-1 cell line): 0.02
- Bliss Volume (CAMA-1 cell line): 41.48
- HSA volume (CAMA-1 cell line): 38.74
- Loewe Volume (CAMA-1 cell line): 40.35
- Synergy Score (CAMA-1 cell line): 89.71
- Best CI (DU-4475 cell line): 0.41
- Bliss Volume (DU-4475 cell line): 34.50
- HSA volume (DU-4475 cell line): 31.29
- Loewe Volume (DU-4475 cell line): 31.62
- Synergy Score (DU-4475 cell line): 49.81
- Best CI (EVSA-T cell line): 0.11
- Bliss Volume (EVSA-T cell line): 31.72
- HSA volume (EVSA-T cell line): 28.03
- Loewe Volume (EVSA-T cell line): 29.10
- Synergy Score (EVSA-T cell line): 63.11
- Best CI (HCC38): 0.03
- Bliss Volume (HCC38): 36.56
- HSA volume (HCC38): 31.80
- Loewe Volume (HCC38): 30.82
- Synergy Score (HCC38): 60.48
- Best CI (HCC70): 0.00
- Bliss Volume (HCC70): 73.73
- HSA volume (HCC70): 74.12
- Loewe Volume (HCC70): 74.78
- Synergy Score (HCC70): 173.58
- Best CI (HCC1143 cell line): 0.00
- Bliss Volume (HCC1143 cell line): 53.10
- HSA volume (HCC1143 cell line): 51.70
- Loewe Volume (HCC1143 cell line): 52.79
- Synergy Score (HCC1143 cell line): 89.24
- Best CI (HCC1569): 0.01
- Bliss Volume (HCC1569): 43.44
- HSA volume (HCC1569): 40.52
- Loewe Volume (HCC1569): 40.04
- Synergy Score (HCC1569): 86.99
- Best CI (HCC1806): 0.00
- Bliss Volume (HCC1806): 83.58
- HSA volume (HCC1806): 85.67
- Loewe Volume (HCC1806): 85.91
- Synergy Score (HCC1806): 183.39
- Best CI (HCC1937): 0.00
- Bliss Volume (HCC1937): 69.83
- HSA volume (HCC1937): 71.58
- Loewe Volume (HCC1937): 71.06
- Synergy Score (HCC1937): 157.43
- Best CI (HCC1954): 0.01
- Bliss Volume (HCC1954): 53.64
- HSA volume (HCC1954): 55.54
- Loewe Volume (HCC1954): 55.53
- Synergy Score (HCC1954): 121.26
- Best CI (HCC2218): 0.01
- Bliss Volume (HCC2218): 47.29
- HSA volume (HCC2218): 47.84
- Loewe Volume (HCC2218): 46.72
- Synergy Score (HCC2218): 99.88
- Best CI (HDQ-P1): 0.01
- Bliss Volume (HDQ-P1): 58.35
- HSA volume (HDQ-P1): 61.13
- Loewe Volume (HDQ-P1): 60.82
- Synergy Score (HDQ-P1): 132.76
- Best CI (HMC-1-8): 0.11
- Bliss Volume (HMC-1-8): 21.81
- HSA volume (HMC-1-8): 19.39
- Loewe Volume (HMC-1-8): 20.77
- Synergy Score (HMC-1-8): 39.01
- Best CI (JIMT-1): 0.01
- Bliss Volume (JIMT-1): 57.07
- HSA volume (JIMT-1): 57.74
- Loewe Volume (JIMT-1): 57.21
- Synergy Score (JIMT-1): 126.70
- Best CI (KPL-1): 0.03
- Bliss Volume (KPL-1): 26.84
- HSA volume (KPL-1): 25.88
- Loewe Volume (KPL-1): 26.65
- Synergy Score (KPL-1): 36.44
